From patent US11945806B2, “Stabilization of amyloidogenic immunoglobulin light chains” (The Scripps Research Institute, priority 2019, dated 2024)

How the values were obtained:
[1] = biological target: T1, WIL-FL* (Homo sapiens, UniProt P01721, K101C, form not given); test: Protease-coupled fluorescence polarization (PCFP) assay with proteinase K; details: for EC50: from dose response curves measured during the screening process
[2] = system: WIL-FL*; test: FP artefact counterscreen (compounds added after 24 h of proteinase K treatment); format: biochemical, human; parameters: concentration or dose not given beside the values; details: compound added after 24 h PK treatment; mean ± sd, n=3
Experimental: Secondly, to remove compounds that interfere with the FP measurement, the primary screen was repeated in triplicate but compounds were added after 24 h of proteinase K treatment (FIG. 1f). […] Bona fide hits should retain no FP beyond the low control.

[3] = biological target: T1, WIL-FL*; test: PCFP assay with thermolysin; details: mean ± sd, n=3; 6.75 μM compound
Experimental: Thirdly, to remove molecules that inhibit proteinase K, the assay was repeated in triplicate using 100 nM thermolysin (Thermo). […] The additional metal ions were added to bind to ion-chelating small molecules and prevent them from inhibiting the metalloproteinase.
To identify and exclude molecules that interfered with FP measurements, the assay was repeated, but candidate stabilizers were not added until after 24 h of PK treatment (FIG. 1f). […] Thermolysin is a broad-spectrum metalloprotease that is likely not inhibited by compounds that inhibit PK, a serine protease.

[4] = biological target: T2, WIL-FL (Homo sapiens, UniProt P01721); test: Equilibrium unfolding, urea titration; format: biochemical; details: 1 at 100 μM or 5 at 50 μM, WIL-FL 5 μM; 1.4 M without ligand
Experimental: Equilibrium unfolding. WIL-FL (5 μM) was titrated against urea in 50 mM sodium phosphate buffer, pH 7.0, containing 50 μM 5 or 100 μM 1. After incubation overnight at 25° C., intrinsic tryptophan fluorescence emission spectra were measured using a Jasco 8600 fluorimeter (μex=280 nm, μem=300-420 nm). Average wavelength (also known as center of spectral mass) values were calculated using the equation: […]
λi and Ii are the are the wavelength and intensity at i, respectively. Average wavelength data were normalized for comparison. […] Midpoint urea concentrations were calculated by fitting the titration data to a 2-state unfolding equation: […]
x is the urea concentration (M), G is the free energy of unfolding (kJ mol^−1), m is the denaturant dependence of the unfolding reaction (kJ mol^−1 M^−1), R is the ideal gas constant, T is the temperature in K, a and c are the fluorescence of the folded and unfolded states, and b and d are the denaturant dependence of the fluorescence of the folded and unfolded states, respectively.

[5] = biological target: T2, WIL-FL; test: Kinetic unfolding in urea; format: biochemical; details: 5 at 50 μM, WIL-FL 5 μM; 3.57 s^−1 for WIL-FL alone
Experimental: Kinetic unfolding. WIL-FL (5 μM) in 50 mM sodium phosphate buffer, pH 7.0, containing 50 μM 5 was rapidly diluted into urea in 50 mM sodium phosphate buffer and 50 μM 5 using an APP SX-20 stopped flow fluorimeter at 37° C. The change in fluorescence emission >335 nm was measured as a function of time (λex=280 nm). […] Kinetic transients were fitted to single exponential curves and rates extracted.

[6] = biological target: T2, WIL-FL; test: PK proteolysis of unlabeled WIL-FL by SDS-PAGE; details: WIL-FL 10 μM, small molecule 100 μM, t=2 h
Experimental: The experiment in FIG. 1b measured simultaneous proteolysis of labeled and unlabeled LC by adding 20 nM WIL-FL* or JTO-FL* to 5 μM WIL-FL or JTO-FL, respectively. Fluorescein fluorescence images of the SDS-PAGE gels were recorded, after which the gels were Coomassie stained and imaged.

[7] = biological target: T2, WIL-FL; test: Unlabeled LC Protease Sensitivity Assay (proteinase K); format: biochemical; details: small molecule 10 μM, WIL-FL 5 μM, proteinase K 50 nM, 2 hours at 37° C.
Summary of the method: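 Compound at 10 μM (1% DMSO) is mixed with 5 μM WIL-FL and 50 nM proteinase K in PBS pH 7.4/0.02% Pluronic F-127, 37 °C, 2 h, then quenched with PMSF. Remaining protein measured by SEC-UPLC peak area at 280 nm and expressed as fold protection relative to vehicle and no-protease controls.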

[8] = secondary screen, mean ± sd, n=3, 6.75 μM compound, FP retention after 24 h at 22° C., normalized to high and low controls
[9] = Primary screen, n=1, 6.75 μM compound

Structure (SMILES) | EC50 [1] [µM] | PK activity (%) [1, 8] [%] | Counterscreen activity (%) [2] [%] | Thermolysin activity (%) [3] [%] | further results
CC(C)CC1NC(=O)N(CC(=O)Nc2ccc(C(F)(F)F)cc2)C1=O (racemic) [Compound 8] | 7.36 | 48.0 ± 2.4 | −2.05 ± 2.9 | 50.8 ± 1.7 | 
CCOC(=O)Cc1c(C)c2ccc(N(CC)CC)cc2oc1=O [Compound 2] | 6.92 | 37.8 ± 1.4 | −4.13 ± 5.2 | 33.8 ± 3.1 | 
Cc1cc(=O)oc2cc(OC(C)c3ccccc3)ccc12 (centres unmarked) [Compound 3] |  | 43.3 ± 1.5 | −2.52 ± 5.8 | 38.7 ± 3.7 | 
CC(Oc1ccc(/C=C(\C#N)C(N)=O)cc1)c1ccccc1 (centres unmarked) [Compound 4] | 6.33 | 48.9 ± 2.6 | −7.4 ± 4.0 | 40.4 ± 1.2 | 
Cc1cc(O)nc(N/N=C/C=C/c2ccccc2[N+](=O)[O-])n1 [Compound 5] | 5.51 | 65.2 ± 2.8 | 8.04 ± 2.6 | 61.1 ± 5.0 | midpoint concentration of urea required to unfold the FL LC [4]: 2.0 M; unfolding rate constant (extrapolated to the absence of denaturant) [5]: 2.43 s⁻¹
CC(C=NNc1ccc(S(N)(=O)=O)cc1[N+](=O)[O-])c1ccccc1 (centres unmarked) [Compound 6] | 4.92 | 60.8 ± 2.7 |  | 45.1 ± 6.6 | 
CC1CCCCC12NC(=O)N(CC(=O)Nc1ccc(C(F)(F)F)cc1)C2=O (centres unmarked) [Compound 7] | 5.87 | 29.3 ± 2.5 | 2.51 ± 4.7 | 26.3 ± 1.7 | 
CCN(CC)c1ccc2ccc(=O)oc2c1 [Compound 9] | 7.9 | 37.9 ± 1.1 | −3.45 ± 3.89 | 27.1 ± 1.3 | protection of WIL-FL against PK proteolysis [6]: stabilizes WIL-FL, but is less efficacious than 1
CCN(CC)c1ccc2c(C)c(Cl)c(=O)oc2c1 [Compound 10] | 4 | 48.0 ± 3.8 | −1.54 ± 2.4 | 55.5 ± 3.3 | 
CCN(CC)c1ccc2c(C)c(I)c(=O)oc2c1 [Compound 11] | 4.18 | 58.7 ± 2.0 | 0.94 ± 3.9 | 45.7 ± 7.0 | 
CCN(CC)c1ccc2c(C)c(CN3CCOCC3)c(=O)oc2c1 [Compound 12] | 11.3 | 37.2 ± 7.3 | 0.41 ± 2.5 | 30.2 ± 4.2 | 
CCN(CC)c1ccc2c(CN3CCOCC3)cc(=O)oc2c1 [Compound 13] | 9.15 | 4.21 ± 4.4 | −4.10 ± 1.5 | 23.3 ± 8.5 | 
CCN(CC)c1ccc2c(C)c(CC(C)=O)c(=O)oc2c1 [Compound 14] | 9.04 | 41.9 ± 3.0 | 1.67 ± 4.7 | 34.8 ± 3.1 | 
CC(Oc1ccc2ccc(=O)oc2c1)c1ccccc1 (centres unmarked) [Compound 15] | 9.28 | 34.2 ± 3.0 | −4.35 ± 5.6 | 18.3 ± 4.9 | 
CN(C)c1ccc(C2OCC(Cl)([N+](=O)O)CO2)cc1 (centres unmarked) [Compound 16] | 6.73 | 50.5 ± 5.3 | −3.09 ± 3.0 | 29.1 ± 0.3 | 
CC(=O)c1ccn(S(=O)(=O)c2ccccc2)c1 [Compound 17] | 18.5 |  |  |  | PK activity (%) ([1]; 10 μM in pilot screen, n=1): 58.1 (10 μM in pilot screen) %
CC(=O)c1ccc(S(=O)(=O)c2ccccc2)cc1 [Compound 18] | 18 |  |  |  | PK activity (%) ([1]; 10 μM in pilot screen, n=1): 46.5 (10 μM in pilot screen) %
Cc1cc(=O)oc2cc(O)ccc12 [Compound 19] |  |  |  |  | PK activity (%) [1, 9]: 2.27 (Primary screen) %
O=c1ccc2ccccc2o1 [Compound 21] |  |  |  |  | PK activity (%) [1, 9]: 2.58 (Primary screen) %
CCN(CC)c1ccc2c(C)c(CCNC(=O)NCc3cccc(OCC(=O)OC)c3)c(=O)oc2c1 [Compound 312, Methyl 2-(3-((3-(2-(7-(diethylamino)-4-methyl-2-oxo-2H-chromen-3-yl)ethyl)ureido)methyl)phenoxy)acetate] |  |  |  |  | Protection (fold protection of LC from protease) [7]: C (C ≥ 0.6)
